In PubChem BioAssay (NCI) one finds TGI data, which are given here for 12 molecules.

Each structure is given as a SMILES string.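 Compound exposure: 48 hours, 5 concentrations, 96-well plates. TGI marks complete inhibition of growth.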

Assay in all cases: growth of human tumour cells (NCI), 48 h
Test [1] has as its system SK-MEL-28 melanoma.
Test [2] deals with OVCAR-3 ovarian.
In test [3] the test system is OVCAR-5 ovarian.
Test [4] deals with MOLT-4 leukemia.
Test [5] concerns A498 renal.
Test [6] deals with HOP-92 NSCLC.
Test [7] deals with SNB-19 CNS.
The test system of test [8] is HS 578T breast.
The test system of test [9] is UO-31 renal.
Test [10] relates to SF-295 CNS.
The test system of test [11] is PC-3 prostate.

Turning to `Cc1cc(C)c(S(=O)(=O)N(CCCN)OCCON(CCCN)S(=O)(=O)c2c(C)cc(C)cc2C)c(C)c1`, the TGI in test [1] was 31 µM; in test [2] it was 3.93 µM; in test [3], 4.99 µM; in test [4], greater than 100 µM; in [5], 53.9 µM; in test [6] it was greater than 21.6 µM. For the same molecule, the TGI in test [7] was determined as 4.37 µM; in test [8] it was 30.3 µM; in [9], 58.7 µM; in test [10], 67 µM; in test [11] it was 4.02 µM.

With `CC(Cc1cccc2c1Nc1ccccc1S2)N(C)CCO` (configuration not stated), the TGI in test [1] is greater than 100 µM; in [2], greater than 100 µM; in [3] it was greater than 100 µM; in [4], greater than 100 µM; in [5], 93.9 µM; in test [6], greater than 100 µM. Further, the TGI in test [7], in [8], in [9], in test [10] and in [11] was greater than 100 µM throughout.

Consider `COc1ccc2c(c1)-c1nc(=O)n(CCCN(C)C)c3ccc([N+](=O)[O-])c(c13)N2`, for which the TGI in [1] worked out at 4.3 µM; in test [2], 19.4 µM; in test [3], 4.89 µM; in test [4] it was 0.841 µM; in [5] it was 31 µM; in [6] it was 8.53 µM. For the same molecule, the TGI in [7] was determined as 8.58 µM; in [8] it was 4.99 µM; in test [9], 4.73 µM; in [10] it was 20.8 µM; in [11], 20.9 µM.

For the molecule `COc1ccc(-n2c(Cn3nnc(-c4cccnc4)n3)nn(C3OC(COC(=O)c4ccccc4)C(OC(=O)c4ccccc4)C3OC(=O)c3ccccc3)c2=S)cc1` (configuration not stated), the TGI in test [1], in test [2], in test [3], in test [4], in test [5] and in [6] was greater than 100 µM throughout. The TGI in [7], in test [8], in [9], in test [10] and in test [11] was greater than 100 µM in each case.

Turning to `Cc1cnc2c(c1)C(=O)N(c1ccc([N+](=O)[O-])cc1)S2(=O)=O`, the TGI in test [1], in test [2], in test [3], in test [4], in [5] and in test [6] was greater than 100 µM in each case. For the same molecule, the TGI in test [7], in test [8], in test [9], in [10] and in test [11] was greater than 100 µM throughout.

As for `CO[C@H]1O[C@@H]2OC3(C)CCC4[C@H](C)CCC([C@H]1C)[C@]42OO3` (some centres not stated), the TGI in test [1], in [2], in test [3], in test [4], in test [5] and in test [6] was greater than 100 µM in each case. In addition, the TGI in [7], in test [8], in test [9], in test [10] and in test [11] was greater than 100 µM throughout.

On to `O=c1oc2ccc3ccccc3c2cc1-c1cn2c(n1)sc1ccccc12`, for which the TGI is greater than 100 µM in test [1]; greater than 100 µM in [2]; greater than 100 µM in [3]; 14 µM in test [4]; greater than 100 µM in [5]; greater than 100 µM in test [6]. For the same molecule, the TGI in test [7], in [8], in [9], in test [10] and in test [11] was greater than 100 µM each time.

In the case of `O=C(NCCc1ccccc1)c1cc(/C=C/c2cc(O)ccc2O)ccc1O`, the TGI in test [1] is 10.4 µM; in test [2], 8.11 µM; in test [3] it was 25.3 µM; in test [4], 7.5 µM; in test [5], 13.6 µM; in [6], 4.35 µM. In addition, the TGI is 19.6 µM in test [7]; greater than 40.4 µM in [8]; 2.86 µM in test [9]; 35.2 µM in test [10]; 11.4 µM in [11].

`CC[C@@H]1CC[C@@H]2[C@H](CC[C@]3(C)[C@@H](OC(C)=O)CC[C@@H]23)[C@H]1C(=O)OC`: the TGI in test [1] was greater than 100 µM; in [2], 34.4 µM; in test [3], 59.5 µM; in [4], 42 µM; in test [5] it was greater than 100 µM; in test [6], 37.3 µM. Further, the TGI in test [7] is 72.4 µM; in [8], greater than 100 µM; in test [9], greater than 100 µM; in test [10] it was 46.6 µM; in test [11] it was 67.3 µM.

With `COc1cc2cc3c4cc(OC)c(OC)cc4cc[n+]3c(C)c2cc1OC`, the TGI in test [1], in test [2], in test [3], in test [4], in [5] and in test [6] was greater than 100 µM throughout. Also, the TGI in test [7], in [8], in test [9], in [10] and in test [11] was greater than 100 µM in each case.

Turning to `CCC(c1ccc(OC)cc1)C1NC(=S)NC1=O` (configuration not stated), the TGI in test [1], in [2], in test [3], in test [4], in [5] and in [6] was greater than 50 µM in each case. In addition, the TGI in [7], in test [8], in test [9], in test [10] and in test [11] was greater than 50 µM throughout.

As for `Cc1c2ccccc2c(C2C3C(=O)N(c4cccc5ccccc45)C(=O)C3ON2Cc2ccc(CC(N)=O)cc2)c2ccccc12` (configuration not stated), the TGI in test [1] is greater than 50 µM; in [2], greater than 50 µM; in test [3] it was greater than 50 µM; in test [4], 25.7 µM; in test [5], greater than 50 µM; in test [6], greater than 50 µM. The TGI in test [7], in test [8], in test [9], in [10] and in test [11] was greater than 50 µM each time.
